Test results reported in ChEMBL document CHEMBL5380795, “Design, Synthesis, and Bioactivity Investigation of Cyclic Lipopeptide Antibiotics Containing Eight to Nine Amino Acids” (J Med Chem, 2023).
Values after ≈ are worked out from the molar mass of the structure shown. Bridge positions count the residues as written; N and C are the ends. Square brackets hold non-standard residues; d marks the D form. Peptide text beside a SMILES is read from it. * marks the point of attachment. Decanoyl(3R-OH) = CCCCCCC[C@@H](O)CC(=O)*; dDab = NCC[C@@H](N)C(=O)O; Dab = NCC[C@H](N)C(=O)O

Tests used:
[1] = Selectivity index, ratio of IC50 for cytotoxicity against human HK-2 cells to MIC for antibacterial activity against Escherichia coli ATCC BAA-2523; format: toxicity, cell-based
[2] = test system: Staphylococcus epidermidis; assay: Antibacterial activity against methicillin resistant Staphylococcus epidermidis clinical isolate 19-6 assessed as inhibition of bacterial growth incubated for 18 to 24 hrs by broth microdilution method; format: functional; conditions: time 18-24 hrs
[3] = test system: Staphylococcus epidermidis; assay: Antibacterial activity against methicillin resistant Staphylococcus epidermidis clinical isolate 19-5 assessed as inhibition of bacterial growth incubated for 18 to 24 hrs by broth microdilution method; format: functional; conditions: time 18-24 hrs
Klebsiella pneumoniae [4] = assay: Antibacterial activity against carbapenem resistant Klebsiella pneumoniae clinical isolate 19-17 assessed as inhibition of bacterial growth incubated for 18 to 24 hrs by broth microdilution method; format: functional; conditions: time 18-24 hrs
Escherichia coli [5] = assay: Antibacterial activity against Escherichia coli NCTC 13353 assessed as inhibition of bacterial growth incubated for 18 to 24 hrs by broth microdilution method; format: functional; conditions: time 18-24 hrs
Klebsiella pneumoniae [6] = assay: Antibacterial activity against KPC producing Klebsiella pneumoniae ATCC BAA-1705 assessed as inhibition of bacterial growth incubated for 18 to 24 hrs by broth microdilution method; format: functional; conditions: time 18-24 hrs
Pseudomonas aeruginosa [7] = assay: Antibacterial activity against carbapenem resistant Pseudomonas aeruginosa clinical isolate 19-3 assessed as inhibition of bacterial growth incubated for 18 to 24 hrs by broth microdilution method; format: functional; conditions: time 18-24 hrs
Staphylococcus aureus [8] = assay: Antibacterial activity against Staphylococcus aureus ATCC 29213 assessed as inhibition of bacterial growth incubated for 18 to 24 hrs by broth microdilution method; format: functional; conditions: time 18-24 hrs
Pseudomonas aeruginosa [9] = assay: Antibacterial activity against carbapenem resistant Pseudomonas aeruginosa clinical isolate 17-1 assessed as inhibition of bacterial growth incubated for 18 to 24 hrs by broth microdilution method; format: functional; conditions: time 18-24 hrs
[10] = Cytotoxicity against human HK-2 cells assessed as inhibition of cell growth incubated for 72 hrs by CCK-8 assay; format: toxicity, cell-based
Acinetobacter baumannii [11] = assay: Antibacterial activity against carbapenem resistant Acinetobacter baumannii clinical isolate 19-8 assessed as inhibition of bacterial growth incubated for 18 to 24 hrs by broth microdilution method; format: functional; conditions: time 18-24 hrs
Escherichia coli [12] = assay: Antibacterial activity against Escherichia coli ATCC BAA-2523 assessed as inhibition of bacterial growth incubated for 18 to 24 hrs by broth microdilution method; format: functional; conditions: time 18-24 hrs
Acinetobacter baumannii [13] = assay: Antibacterial activity against oxacillinase-27 producing Acinetobacter baumannii NCTC 13304 assessed as inhibition of bacterial growth incubated for 18 to 24 hrs by broth microdilution method; format: functional; conditions: time 18-24 hrs
Staphylococcus aureus [14] = assay: Antibacterial activity against methicillin resistant Staphylococcus aureus ATCC 33591 assessed as inhibition of bacterial growth incubated for 18 to 24 hrs by broth microdilution method; format: functional; conditions: time 18-24 hrs
Pseudomonas aeruginosa [15] = assay: Antibacterial activity against Pseudomonas aeruginosa clinical isolate 19-1 assessed as inhibition of bacterial growth incubated for 18 to 24 hrs by broth microdilution method; format: functional; conditions: time 18-24 hrs
Escherichia coli [16] = assay: Antibacterial activity against Escherichia coli clinical isolate 19-2 assessed as inhibition of bacterial growth incubated for 18 to 24 hrs by broth microdilution method; format: functional; conditions: time 18-24 hrs
Pseudomonas aeruginosa [17] = assay: Antibacterial activity against Pseudomonas aeruginosa ATCC 27853 assessed as inhibition of bacterial growth incubated for 18 to 24 hrs by broth microdilution method; format: functional; conditions: time 18-24 hrs
Escherichia coli [18] = assay: Antibacterial activity against KPC producing Escherichia coli ATCC BAA-2340 assessed as inhibition of bacterial growth incubated for 18 to 24 hrs by broth microdilution method; format: functional; conditions: time 18-24 hrs
Klebsiella pneumoniae [19] = assay: Antibacterial activity against carbapenem resistant Klebsiella pneumoniae clinical isolate 19-15 assessed as inhibition of bacterial growth incubated for 18 to 24 hrs by broth microdilution method; format: functional; conditions: time 18-24 hrs

| Compound | selectivity ratio [1] | MIC [2] [µg/mL] | MIC [3] [µg/mL] | MIC (Klebsiella pneumoniae [4]) [µg/mL] | MIC (Escherichia coli [5]) [µg/mL] | MIC (Klebsiella pneumoniae [6]) [µg/mL] | MIC (Pseudomonas aeruginosa [7]) [µg/mL] | MIC (Staphylococcus aureus [8]) [µg/mL] | MIC (Pseudomonas aeruginosa [9]) [µg/mL] | IC50 at 72 h [10] [µg/mL] | MIC (Acinetobacter baumannii [11]) [µg/mL] | MIC (Escherichia coli [12]) [µg/mL] | MIC (Acinetobacter baumannii [13]) [µg/mL] | MIC (Staphylococcus aureus [14]) [µg/mL] | MIC (Pseudomonas aeruginosa [15]) [µg/mL] | MIC (Escherichia coli [16]) [µg/mL] | MIC (Pseudomonas aeruginosa [17]) [µg/mL] | MIC (Escherichia coli [18]) [µg/mL] | MIC (Klebsiella pneumoniae [19]) [µg/mL] |
| --- | --- | --- | --- | --- | --- | --- | --- | --- | --- | --- | --- | --- | --- | --- | --- | --- | --- | --- | --- |
| CCCCCCCC(=O)N[C@H](CCN)C(=O)N[C@H]1CCNC(=O)[C@H](CC(C)C)NC(=O)[C@H](CCN)NC(=O)[C@H](CCN)NC(=O)[C@H](CC(C)C)NC(=O)[C@@H](CC(C)C)NC(=O)[C@H](CCN)NC1=O | 6.2 | 64 (≈ 66.2 µM) | 8 (≈ 8.28 µM) | 16 (≈ 16.6 µM) | 16 (≈ 16.6 µM) | 2 (≈ 2.07 µM) | 4 (≈ 4.14 µM) | > 64 | 2 (≈ 2.07 µM) | 198 (≈ 205 µM) | 16 (≈ 16.6 µM) | 32 (≈ 33.1 µM) | 8 (≈ 8.28 µM) | > 64 | 8 (≈ 8.28 µM) | 32 (≈ 33.1 µM) | 1 (≈ 1.03 µM) | 2 (≈ 2.07 µM) | 16 (≈ 16.6 µM) |
| CCCCCCC[C@@H](O)CC(=O)N[C@H](CCN)C(=O)N[C@H]1CCNC(=O)[C@H]([C@@H](C)O)NC(=O)[C@H](CCN)NC(=O)[C@H](CCN)NC(=O)[C@H](CC(C)C)NC(=O)[C@@H](Cc2ccccc2)NC(=O)[C@H](CCN)NC1=O ({Decanoyl(3R-OH)}-[dDab][Dab][Dab][dF]L[Dab][Dab]T; lactam 2-C) | 125 | 32 (≈ 31 µM) | 8 (≈ 7.75 µM) | 4 (≈ 3.87 µM) | 4 (≈ 3.87 µM) | 0.5 (≈ 0.484 µM) | 1 (≈ 0.969 µM) | > 64 | 0.5 (≈ 0.484 µM) | 125 (≈ 121 µM) | 32 (≈ 31 µM) | 1 (≈ 0.969 µM) | 32 (≈ 31 µM) | > 64 | 0.5 (≈ 0.484 µM) | 2 (≈ 1.94 µM) | 0.5 (≈ 0.484 µM) | 1 (≈ 0.969 µM) | 2 (≈ 1.94 µM) |
| CCCCCCCCCC(=O)N[C@H](CCN)C(=O)N[C@H]1CCNC(=O)[C@H]([C@@H](C)O)NC(=O)[C@H](CCN)NC(=O)[C@H](CCN)NC(=O)[C@H](CC(C)C)NC(=O)[C@@H](Cc2cccc(Cl)c2)NC(=O)[C@H](CCN)NC1=O | 21.3 | 2 (≈ 1.9 µM) | 2 (≈ 1.9 µM) | 4 (≈ 3.81 µM) | 4 (≈ 3.81 µM) | 2 (≈ 1.9 µM) | 2 (≈ 1.9 µM) | 32 (≈ 30.5 µM) | 32 (≈ 30.5 µM) | 42.5 (≈ 40.4 µM) | 16 (≈ 15.2 µM) | 2 (≈ 1.9 µM) | 16 (≈ 15.2 µM) | 64 (≈ 60.9 µM) | 2 (≈ 1.9 µM) | 2 (≈ 1.9 µM) | 32 (≈ 30.5 µM) | 1 (≈ 0.952 µM) | 4 (≈ 3.81 µM) |
| CCCCCCCCCC(=O)N[C@H](CCN)C(=O)N[C@H]1CCNC(=O)[C@H]([C@@H](C)O)NC(=O)[C@H](CCN)NC(=O)[C@H](CCN)NC(=O)[C@H](CC(C)C)NC(=O)[C@@H](Cc2ccccc2Cl)NC(=O)[C@H](CCN)NC1=O | 27.3 | 2 (≈ 1.9 µM) | 4 (≈ 3.81 µM) | 4 (≈ 3.81 µM) | 8 (≈ 7.61 µM) | 2 (≈ 1.9 µM) | 2 (≈ 1.9 µM) | 64 (≈ 60.9 µM) | 64 (≈ 60.9 µM) | 54.6 (≈ 52 µM) | 64 (≈ 60.9 µM) | 2 (≈ 1.9 µM) | 32 (≈ 30.5 µM) | > 64 | 2 (≈ 1.9 µM) | 2 (≈ 1.9 µM) | 32 (≈ 30.5 µM) | 2 (≈ 1.9 µM) | 4 (≈ 3.81 µM) |
| CCCCCCCCCC(=O)N[C@H](CCN)C(=O)N[C@H]1CCNC(=O)[C@H](CC(C)C)NC(=O)[C@H](CCN)NC(=O)[C@H](CCN)NC(=O)[C@H](CC(C)C)NC(=O)[C@@H](CC(C)C)NC(=O)[C@H](CCN)NC1=O | 3.3 | 8 (≈ 8.05 µM) | 2 (≈ 2.01 µM) | 16 (≈ 16.1 µM) | 16 (≈ 16.1 µM) | 2 (≈ 2.01 µM) | 8 (≈ 8.05 µM) | 32 (≈ 32.2 µM) | 2 (≈ 2.01 µM) | 53.5 (≈ 53.8 µM) | 4 (≈ 4.02 µM) | 16 (≈ 16.1 µM) | 8 (≈ 8.05 µM) | 64 (≈ 64.4 µM) | 2 (≈ 2.01 µM) | 16 (≈ 16.1 µM) | 1 (≈ 1.01 µM) | 4 (≈ 4.02 µM) | 8 (≈ 8.05 µM) |
